Results taken from publication PMC10258243, “Identification and characterization of novel marine oxasqualenoid yucatecone against Naegleria fowleri” (International Journal for Parasitology: Drugs and Drug …, 2023).
Read-outs that look alike come from different tables or passages of the source.

How the values were obtained:
N. fowleri ATCC® 30215™ = test: alamarBlue colorimetric activity assay, trophozoites; format: cell-based, Naegleria fowleri; conditions: for IC50: Naegleria fowleri, read-out: N. fowleri ATCC® 30215™ IC50; for N. fowleri ATCC® 30215™ SI (CC50/IC50): selectivity index
Protocol: (§1) The activity evaluation of the molecules was carried out in two different N. fowleri strains (ATCC® 30808™ and ATCC® 30215™) from the American Type Culture Collection (LG Promochem, Barcelona, Spain). The cytotoxicity of the compounds was evaluated using a murine macrophages cell line (ATCC® TIB-67). Cells were grown as previously described ([Rizo-Liendo et al., 2020]).
(§2) A colorimetric assay based on the alamarBlue® reagent was performed to evaluate the activity of the compounds in two different N. fowleri strains (ATCC® 30808™ and ATCC® 30215™). The same protocol optimized by Rizo-Liendo et al. was followed in these assays ([Rizo-Liendo et al., 2019]). Briefly, N. fowleri trophozoites (2 × 10^5 cells/mL) were incubated with serial dilutions (in the same culture media) of the compounds in a 96 well microtiter plate. Next, the alamarBlue® reagent was added and the plates were incubated at 37 °C. After 48 h, the fluorescence was read in an EnSpire Multimode Plate Reader (Perkin Elmer, Madrid, Spain) using a wavelength of excitation of 570 nm and a wavelength of emission of 585 nm.
(§3) All experiments were carried out in triplicate and mean values were also calculated.

N. fowleri ATCC® 30808™ = test: as above; format: cell-based, Naegleria fowleri; conditions: for IC50: Naegleria fowleri, read-out: N. fowleri ATCC® 30808™ IC50; for N. fowleri ATCC® 30808™ SI (CC50/IC50): selectivity index
Protocol: as §1, §2, §3

[1] = alamarBlue cytotoxicity assay; format: cell-based; conditions: mouse, J774A.1, 24 h, mean ± SD, read-out: Murine macrophages CC50
Protocol: as §1
In order to evaluate the cytotoxicity of the compounds a murine macrophages cell line (ATCC® TIB-67) was used. A known concentration of cells (10^5 cells/mL) was incubated with serial dilutions of the molecules. After that, the alamarBlue® reagent was added and the plates were incubated for 24 h at 37 °C and in a 5% of CO2 atmosphere ([Arberas-Jiménez et al., 2020]). The same alamarBlue® based protocol described in the section above was assessed to obtain de cytotoxic concentration 50 (CC50).

N. fowleri trophozoites = test: Celltiter-Glo ATP level measurement; format: cell-based, Naegleria fowleri
Protocol: (§4) The aim of these assays was to evaluate the presence of different metabolic events that are shown in programmed cell death like process (PCD-like) undergoing cells. […] After the treatment of the cells with these concentrations of the molecules, a 50% and a 10%, respectively, of the amoebae in the well remain as viable. Finally, the protocol for each kit was performed following manufacturers’ instructions. Moreover, the percentage of stained cells after the incubation of the treated and non-treated cells with each kit and the ratio of fluorescence between the aggregate and monomer forms of the JC-1 was evaluated. For this, the EVOS M5000 Cell Imaging System (Life Technologies, Madrid, Spain) was used and each experiment was performed in triplicate. In each experiment five different images were evaluated with a minimum number of cells of 80.
The ATP level measurement was performed with the Celltiter-Glo® Luminescent Cell Viability Assay (Promega Biotech Ibérica, Madrid, Spain). […]

[2] = tested on: N. fowleri ATCC® 30808™ trophozoites; test: Hoechst 33342/propidium iodide double stain for chromatin condensation; format: cell-based, Naegleria fowleri; conditions: IC50 and IC90 of compound, 24 h
Protocol: as §4
A double stain detection kit Hoechst 33342/propidium iodide (PI) (Life Technologies, Madrid, Spain) and an EVOS M5000 Cell Imaging System (Life Technologies, Madrid, Spain) were used in this experiment. The assay was performed following manufacturer's instruction.
This kit enables to distinguish between three different group of cells: A light blue fluorescence corresponds to live cells whereas in the treated cells an intense blue fluorescence is shown. Finally, red fluorescence appears in dead cells as the IP binds to their DNA.

[3] = tested on: Cysts of N. fowleri ATCC® 30808™; test: alamarBlue activity assay against cysts; format: cell-based; conditions: Naegleria fowleri, ATCC30808, read-out: IC50 against N. fowleri cysts
Protocol: Cysts of N. fowleri ATCC® 30808™ strain were used in these assays. Cysts were obtained as previously described and performing the protocol optimized by our group ([Arberas-Jiménez et al., 2022]). Mature cysts (2 × 10^5 cells/mL) were incubated with serial dilutions of yucatecone during 24 h at 37 °C. Subsequently, the media was removed and fresh bactocasitone was added with the aim to facilitate the excystation. Finally, the alamarBlue® reagent was added and the plates were incubated for 72 more hours at 37 °C prior to reading the fluorescence and determining the IC50 as described in section 2.4.

[4] = tested on: N. fowleri ATCC® 30808™ trophozoites; test: SYTOX Green plasmatic membrane permeability; format: cell-based, Naegleria fowleri; conditions: IC50 and IC90 of compound, 24 h
Protocol: as §4
The SYTOX Green kit (Life Technologies, Madrid, Spain) was used for the evaluation of the cellular plasmatic membrane damage. This stain binds to the DNA of those cells who have suffered alterations in the permeability of the plasmatic membrane and emits a high green fluorescence. […] This assay was performed following manufacturer's instruction and modified by [Sifaoui et al. (2018)]. An EVOS M5000 Cell Imaging System (Life Technologies, Madrid, Spain) was used to obtain the images.

[5] = tested on: N. fowleri ATCC® 30808™ trophozoites; test: CellROX Deep Red intracellular ROS; format: cell-based, Naegleria fowleri; conditions: IC50 and IC90 of compound, 24 h
Protocol: as §4
The CellROX Deep Red fluorescent assay (Invitrogen, Termo Fisher Scientifc, Madrid, Spain) was used to perform the ROS levels evaluation. After the cell incubation with the yucatecone the stain was added and incubated for half an hour in the dark. Finally, images were obtained with an EVOS M5000 Cell Imaging System (Life Technologies, Madrid, Spain). The presence of ROS is detected by intense red fluorescence.

[6] = tested on: N. fowleri ATCC® 30808™ trophozoites; test: JC-1 mitochondrial membrane potential; format: cell-based, Naegleria fowleri; conditions: IC50 and IC90 of compound, 24 h
Protocol: as §4
The mitochondrial membrane potential decrease was determined using the JC-1 Mitochondrial Membrane Potential Assay Kit (Cayman Chemicals, Vitro SA, Madrid, Spain). The JC-1 dye presents potential-dependent accumulation in mitochondria. At high membrane potentials (healthy cells) JC-1 dye accumulates as “J-aggregates” in the mitochondria and emits red fluorescence whereas at low membrane potentials (cells undergoing PCD-like responses) the dye is presented in monomeric form in the cytoplasm, emitting green fluorescence. […]

[7] = ATCC30215, trophozoite stage, 48 h, mean ± SD, triplicate
[8] = ATCC30808, trophozoite stage, 48 h, mean ± SD, triplicate, N/A = no activity observed

SMILES	IC50 (N. fowleri ATCC® 30215™; [7])	N. fowleri ATCC® 30215™ SI (CC50/IC50) (N. fowleri ATCC® 30215™)	IC50 (N. fowleri ATCC® 30808™; [8])	N. fowleri ATCC® 30808™ SI (CC50/IC50) (N. fowleri ATCC® 30808™)	CC50 at 24 h [1]	decrease of ATP production (N. fowleri trophozoites; treated with the IC50, compared to negative control)	decrease of ATP production (N. fowleri trophozoites; treated with the IC90, compared to negative control)	chromatin condensation (Hoechst 33342) [2]	propidium iodide staining [2]	IC50 [3]	plasma membrane permeability (SYTOX Green) [4]	intracellular ROS level (CellROX Deep Red) [5]	mitochondrial membrane potential (JC-1) [6]	IC50 (N. fowleri ATCC® 30215™; ATCC30215, 48 h)	IC50 (N. fowleri ATCC® 30808™; ATCC30808, 48 h)	N. fowleri ATCC® 30808™ SI (CC50/IC50) (N. fowleri ATCC® 30808™; listed as Yucatecone)	CC50 at 24 h ([1]; J774A.1 murine macrophage cell line (ATCC TIB-67))
C=C(CCC(=O)C1(C)CCC(C(C)(C)O)O1)C1CCC2OC(C3(C)CCC(Br)C(C)(C)O3)CCC2(C)O1 (stereo not shown) [18-KetoDT (6), 18-ketodehydrothyrsiferol]	12.7 ± 2.64 µM	3.17	15.3 ± 2.82 µM	2.61	40 ± 1.06 µM												
CCCCCCCCCCCCCCCCOP(=O)([O-])OCC[N+](C)(C)C [Miltefosine, reference compound]	81.6 ± 7.23 µM	1.57	38.7 ± 4.23 µM	3.30													
CC(CCC(=O)C1(C)CCC(C(C)(C)O)O1)C1CCC2OC(C3(C)CCC(Br)C(C)(C)O3)CCC2(C)O1 (stereo not shown) [Yucatecone (4), yucatecone]		>5.23		>2.98	> 85 µM	54.80%	90.44%	induces chromatin condensation	no fluorescence is shown	9.43 ± 1.48 µM	caused plasma membrane permeabilty damage	increased the intracellular ROS level production	induces the depolarization of the mitochondrial membrane potential	16.2 ± 1.23 µM	28.5 ± 5.04 µM	> 2.98	
C[C@@H]1[C@H](O)[C@@H](C)/C=C/C=C/C=C/C=C/C=C/C=C/C=C/[C@H](O[C@@H]2O[C@H](C)[C@@H](O)[C@H](N)[C@@H]2O)C[C@@H]2O[C@](O)(C[C@@H](O)C[C@@H](O)[C@H](O)CC[C@@H](O)C[C@@H](O)CC(=O)O[C@H]1C)C[C@H](O)[C@H]2C(=O)O [Amphotericin B, reference compound]	0.16 ± 0.02 µM	>1204.82	0.12 ± 0.03 µM	>1652.89													> 200 µM
